We go through 15 molecules from the Kinase Knowledgebase extract (Sharma et al. 2016).

Each structure is given as a SMILES string.

PIK3CG, sequence (P48736 whole entry, looked up): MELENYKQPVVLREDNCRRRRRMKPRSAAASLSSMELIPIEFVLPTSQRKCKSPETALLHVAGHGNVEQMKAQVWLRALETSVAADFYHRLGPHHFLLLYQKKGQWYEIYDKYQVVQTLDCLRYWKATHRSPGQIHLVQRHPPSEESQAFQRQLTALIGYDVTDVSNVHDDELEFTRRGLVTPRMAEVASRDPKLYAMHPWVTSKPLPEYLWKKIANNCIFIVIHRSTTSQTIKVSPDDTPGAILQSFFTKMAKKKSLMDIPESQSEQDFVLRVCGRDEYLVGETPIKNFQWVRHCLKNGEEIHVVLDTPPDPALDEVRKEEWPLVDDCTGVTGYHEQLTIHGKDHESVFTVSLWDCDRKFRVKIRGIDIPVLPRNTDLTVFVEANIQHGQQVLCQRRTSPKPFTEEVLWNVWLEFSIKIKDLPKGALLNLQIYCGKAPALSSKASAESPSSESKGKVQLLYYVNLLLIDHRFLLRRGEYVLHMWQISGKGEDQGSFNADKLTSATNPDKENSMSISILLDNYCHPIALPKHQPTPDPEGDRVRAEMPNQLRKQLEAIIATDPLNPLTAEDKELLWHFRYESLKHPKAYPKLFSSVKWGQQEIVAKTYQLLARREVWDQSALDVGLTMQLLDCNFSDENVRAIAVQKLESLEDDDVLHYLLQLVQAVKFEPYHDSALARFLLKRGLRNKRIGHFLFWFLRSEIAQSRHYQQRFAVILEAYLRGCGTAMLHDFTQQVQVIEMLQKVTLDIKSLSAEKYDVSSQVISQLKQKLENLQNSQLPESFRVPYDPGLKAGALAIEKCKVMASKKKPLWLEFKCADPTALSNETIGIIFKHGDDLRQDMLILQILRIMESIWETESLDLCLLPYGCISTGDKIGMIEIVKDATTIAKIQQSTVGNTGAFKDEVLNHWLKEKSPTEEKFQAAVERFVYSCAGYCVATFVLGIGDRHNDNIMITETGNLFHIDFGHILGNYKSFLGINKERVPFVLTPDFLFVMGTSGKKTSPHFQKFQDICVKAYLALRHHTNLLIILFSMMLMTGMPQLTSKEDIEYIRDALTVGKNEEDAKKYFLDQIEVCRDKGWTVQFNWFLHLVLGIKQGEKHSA

This assay has as its target PIK3CG (UniProt P48736). Briefly: Inhibition of PIK3CG Kinase Activity.
As for `CC(C)(C)c1cc(C(C)(C)C)nc(CN2C(=O)COc3ccc(C=C4SC(=S)NC4=O)cc32)n1`, the IC50 was found to be 2070 nM.

For `CC(C)(C)c1cc(O)cc(CN2C(=O)COc3ccc(C=C4SC(=S)NC4=O)cc32)c1`, the IC50 was 22 nM.

`O=C1NC(=S)SC1=Cc1ccc2c(c1)N(CCc1ccc(C(F)(F)F)cc1C(F)(F)F)C(=O)CO2` returned an IC50 of 14 nM.

Consider `CC1CC(C)CN(CCCN2C(=O)COc3c(F)cc(C=C4SC(=S)NC4=O)cc32)C1` (stereo not given), for which the IC50 was 18.5 nM. The IC50 values of the last two molecules are within 1.5-fold of each other.

With `O=C1NC(=S)SC1=Cc1cc(F)c2c(c1)N(Cc1ccc(F)c(Cl)c1)C(=O)CO2`, the IC50 was 2 nM.

As for `CCOC(=O)N1CCC(Cc2ccc(CN3C(=O)COc4ccc(C=C5SC(=O)NC5=O)cc43)cc2)CC1`, the IC50 worked out at 32 nM.

`COc1ccc(CCCN2C(=O)COc3ccc(C=C4SC(=O)NC4=O)cc32)cc1` displayed an IC50 of 18 nM.

As to `O=C1NC(=S)SC1=Cc1ccc2c(c1)N(CC1CCCCC1)C(=O)CO2`, the IC50 is 2 nM.

As to `O=C1NC(=S)SC1=Cc1cc(F)c2c(c1)N(CCCN1CCOCC1)C(=O)CO2`, the IC50 came out at 55 nM.

`CC(C)(C)c1cc(CN2C(=O)COc3c(F)cc(C=C4SC(=S)NC4=O)cc32)cc(C(C)(C)O)c1` came in with an IC50 of 5 nM. Compared with the last molecule, the IC50 is about 11-fold lower.

With `CN1C(=O)COC2C=CC(C=C3OC(=S)NC3=O)=CC21` (stereo not given), the IC50 was 16 nM.

The molecule `CCN1C(=O)COc2ccc(C=C3SC(=S)NC3=O)cc21` gave an IC50 of 42 nM.

`CCOC(=O)N1CCC(Cc2ccc(CN3C(=O)COc4ccc(C=C5SC(=S)NC5=O)cc43)cc2)CC1` displayed an IC50 of 52 nM.

`CC(C)(C)c1cc(C(C)(C)C)nc(CN2C(=O)COc3c(F)cc(C=C4SC(=S)NC4=O)cc32)n1` had an IC50 of 1240 nM.

`CC(C)(C)OC(=O)N1CCC(C(=O)CN2C(=O)COc3ccc(C=C4SC(=S)NC4=O)cc32)CC1` returned an IC50 of 3180 nM.

A word on the IC50: it is the concentration that gives 50% inhibition.
